{
  "source": "patent US20100266696A1",
  "about": "“Organic Compounds” (priority 2007, published 2010)",
  "key": {"[1]": {"conditions": "final product after spray drying; ultrasonication 60 W 480 s", "description": "The spray dryer is operated at an outlet temperature of around 75-78° C., i.e., above the boiling point of neat acetone, in order to avoid solvent condensation in the spray tower. The inlet temperature is set to 100° C., and the experiment initiated by spraying pure solvent. The spray rate is set to a flow of 5 mL/min using a Büchi lab scale spray dryer, with the aspirator operated at 100%. The nitrogen flow rate is kept constant at 600-700 l/h. At these operating conditions, the homogenised suspension is sprayed, and a dry powder is collected in a cyclone followed by a cloth filter.\nOnce again ultrasonication at 60 W is applied for 480 seconds to break any loose aggregates in the product prior to starting the particle size distribution measurement.\nThe final product after spray drying is re-characterized after 25 days of storage at ambient conditions as well as at 4° C."}, "[2]": {"assay": "Scanning electron microscopy of glycopyrrolate materials (Example 1)", "type": "physicochemical", "text": "(§1) The crystallites appear to break into fairly regular, rectangularly shaped fragments of smaller size in the early stages of homogenization, which are subsequently comminuted and smoothed further. Particle size decreases further at an increasing number of homogenization cycles, after 24 passes the average particle size is around 1 μm already, and the particle edges are noticeably more rounded than initially or after only 12 passes. No significant changes are observed in particles isolated after 24 and 48 passes through the homogeniser.\n(§2) Particles still appear as rectangularly shaped fragments with smoothed edges and an average size around or slightly above 1 μm. The specific surface area of the dried suspension (analysed by adsorption analysis, BET surface measurement) is determined to be 4.0 m^2/g."}, "[3]": {"assay": "Laser light diffraction particle size analysis of high pressure homogenised glycopyrrolate suspension (Example 1)", "type": "physicochemical", "conditions": "suspension in acetone after homogenisation at 950 bar, 48 passes; ultrasonication 60 W 480 s", "description": "The suspension is then homogenised at a pressure drop of 950 bar, a reflux temperature of about 9-12.5° C., and a mixing/reflux vessel jacket temperature of 2° C. The piston pump stroke frequency is about 60, and the process is run for a total of 60 minutes, which is equivalent to a total of 48 passes or homogenisation cycles. Samples are also taken as in process control after 15 (12 passes) and 30 (24 passes) minutes, and analyzed along with the final product.\nas §1"}, "[4]": {"assay": "X-ray powder diffraction and DSC crystallinity", "type": "physicochemical", "conditions": "final product after spray drying"}, "[5]": {"assay": "Aggregation/agglomeration tendency: jet-milled vs high pressure homogenised and dried (Example 4)", "type": "physicochemical", "text": "The mill is equipped with 3 nozzles of 1.9 mm diameter. […] As a consequence, the material has to be co-milled with a force control agent such as magnesium stearate in order to obtain a freely flowable non-agglomerating micronised drug substance."}, "[6]": {"assay": "BET specific surface area (adsorption analysis)", "type": "physicochemical", "description": "as §2\nThe specific surface area of the final product by BET analysis is determined to be 4.0 m2/g."}},
  "data": [
    {"smiles": "C[N+]1(C)CCC(OC(=O)C(O)(c2ccccc2)C2CCCC2)C1.[Br-]", "note": "(stereo not shown) [glycopyrrolate, 3-[(cyclopentyl-hydroxyphenylacetyl)oxy]-1,1-dimethyl-pyrrolidinium bromide]", "values": [
      {"measurement": "mean particle size, ×50", "setting": "[1]", "value": 1.7, "unit": "μm"},
      {"measurement": "×90 value", "setting": "[1]", "value": 3.6, "unit": "μm"},
      {"measurement": "average particle size", "setting": "[2]; after 24 passes of homogenisation", "value": "around 1 μm"},
      {"measurement": "average size by scanning electron microscopy", "setting": "[2]; after homogenisation step", "value": "below 5 μm"},
      {"measurement": "average size by SEM", "setting": "[2]; spray dried glycopyrrolate", "value": "~1", "unit": "μm"},
      {"measurement": "×10 mean particle size", "setting": "[3]", "value": 0.6, "unit": "μm"},
      {"measurement": "×50 mean particle size", "setting": "[3]", "value": 1.3, "unit": "μm"},
      {"measurement": "×90 mean particle size", "setting": "[3]", "value": 3.1, "unit": "μm"},
      {"measurement": "crystallinity (XPRD and DSC) compared to coarse drug substance", "setting": "[4]", "value": "no change in crystallinity"},
      {"measurement": "tendency to aggregate or agglomerate", "setting": "[5]; high pressure homogenised and subsequently dried material (Examples 1, 2 and 3)", "value": "no tendency to aggregate or agglomerate"},
      {"measurement": "tendency to aggregate and agglomerate", "setting": "[5]; micronised in fluid bed opposed jet mill", "value": "high tendency to aggregate and agglomerate"},
      {"measurement": "specific surface area (BET)", "setting": "[6]; dried suspension", "value": 4.0, "unit": "m^2/g"},
      {"measurement": "specific surface area by BET analysis", "setting": "[6]; final product", "value": 4.0, "unit": "m2/g"}
    ]}
  ]
}
